# Assays:
# [1] = system: ptosis induced by tetrabenazine; test: Test 5: inhibition of tetrabenazine-induced ptosis; format: in vivo
# Experimental: 5. S.c. dose which inhibits the ptosis induced by a dose of 79 umole/kg of tetrabenazine, in 50% of the mice.
# (§1) The acute toxicity data are determined in mice. Tests 2-6 are also carried out in mice. The doses are expressed in micromole/kg. The therapeutical index (TI) is the LD/ED quotient.
# (§2) Tests 2, 8, 9 and 10 are suitable for the evaluation of the dopaminerg stimulating effect of the test compounds (potential anti-parkinson agent). Tests 4, 5, 6 and 7 give information about the catecholamine-uptake inhibiting effect (potential antidepressive activity).
# prolactine level = test: Test 10: decrease of prolactine level in ovariectomised rats; format: in vivo; conditions: Rattus norvegicus, 96 h, after 4 days treatment with oestradiol 0.073 umole/kg, read-out: Dose which induces a significant decrease of the prolactine level (Test 10)
# Experimental: 10. The dose which induces a significant decrease of the prolactine level after 4 days treatment with a dose of 0.073 umole/kg of oeastradiol, on three weeks earlier ovariectomised rats.
# (§3) Tests 7-10 are carried out in cats and rats, the doses are expressed in micromole/kg.
# as §2
# [2] = system: blood pressure and nictitating membrane; test: Test 7: blood pressure and nictitating membrane effect; format: in vivo; conditions: Felis catus, iv, cats; ">" = inactive in the given dose; read-out: Lowest i.v. dose which still increases the blood pressure and nictitating membrane effect (Test 7)
# Experimental: as §3, §2
# [3] = system: catalepsy induced by tetrabenazine; test: Test 4: inhibition of tetrabenazine-induced catalepsy; format: in vivo
# Experimental: (§4) 4. S.c. dose which inhibits the catalepsy induced by a 110 umole/kg dose of tetrabenazine, in 50% of the mice.
# as §1, §2
# [4] = system: catalepsy induced by Haloperidol; test: Test 2: inhibition of haloperidol-induced catalepsy; format: in vivo
# Experimental: (§5) 2. S.c. dose which inhibits the catalepsy induced by a 13 umole/kg dose of Haloperidol, in 50% of the mice.
# as §1, §2
# [5] = system: catalepsy induced by Haloperidol / tetrabenazine; test: Comparison of anti-haloperidol (Test 2) and anti-tetrabenazine (Test 4) activity; format: in vivo, mice
# Experimental: as §5, §4, §1
# On comparing the dopaminerg type anti-haloperidol test and the anti-tetrabenazine activity being characteristic of the antidepressive effect the following can be stated:
# The quotient of the ED values of Columns 2 and 4 is the highest for Compound I (55:13=4.2). […] The said quotient is high in the case of Nomifensine (1.6), Compound D (1.8), Compound E (2.7) and Compound F (1.7).
# [6] = Acute toxicity, s.c., LD50; set-up: species or system mice; conditions: mouse, in vivo
# Experimental: as §1
# spontaneous motility = test: Test 3: spontaneous motility; format: in vivo
# Experimental: 3. Lowest i.p. dose which still increases or decreases the spontaneous motility of the mice.
# as §1
# In Test 3 "+=motility increase" and "-=motility decrease."
# [7] = Overall comparison with Nomifensine in the pharmacological tests; format: in vivo
# Experimental: The pharmacological activity of the compounds of the present invention is determined by the following tests:
# as §1, §3
# stereotypy = test: Test 8: induction of stereotypy; format: in vivo; conditions: Rattus norvegicus, sc, rats; ">" = inactive in the given dose; read-out: Lowest s.c. dose which still induces stereotypy (Test 8)
# Experimental: 8. The lowest s.c. dose which still induces stereotypy, in rats.
# as §3, §2
# [8] = system: decrease of the rectal temperature caused by reserpine; test: Test 6: reserpine-induced decrease of rectal temperature; format: in vivo
# Experimental: 6. The lowest s.c. dose which still hinders the decrease of the rectal temperature caused by the administration of a 1,6 umole/kg dose of reserpine.
# as §1, §2
smiles,measurement,setting,value
"CCOC(=O)Nc1cccc2c1CN(C)CC2c1ccc(Cl)cc1 (stereo not shown) [Compound I, 8-ethoxycarbonylamino-4-p-chloro-phenyl-2-methyl-1,2,3,4-tetrahydroisoquinoline]","TI (Test 5), LD/ED quotient",[1]; LD50 / ED of Test 5,1360
same,ED50,"[1]; Mus musculus, sc, read-out: ED, s.c. dose which inhibits the ptosis induced by tetrabenazine in 50% of the mice (Test 5)",1.6 µmol/kg
same,minimal effective dose,prolactine level,26 µmol/kg
same,minimal effective dose,[2],1.3 µmol/kg
same,"TI (Test 4), LD/ED quotient",[3]; LD50 / ED of Test 4,167
same,ED50,"[3]; Mus musculus, sc, read-out: ED, s.c. dose which inhibits the catalepsy induced by tetrabenazine in 50% of the mice (Test 4)",13 µmol/kg
same,"TI (Test 2), LD/ED quotient",[4]; LD50 / ED of Test 2,40
same,ED50,"[4]; Mus musculus, sc, read-out: ED, s.c. dose which inhibits the catalepsy induced by Haloperidol in 50% of the mice (Test 2)",55 µmol/kg
same,Quotient of the ED values of Columns 2 and 4,[5]; ED Test 2 (haloperidol) : ED Test 4 (tetrabenazine),"4,2"
same,Antidepressant versus antiparkinson profile (in words),[5]; from quotient ED2:ED4,relatively a stronger antidepressant than an antiparkinsone agent
same,Toxicity compared with Nomifensine (in words),[6],toxicity is much lower
same,LD50 at 96 h,"[6]; sc, mice, 96 hour observation",2180 µmol/kg
same,"TI (Test 3), LD/ED quotient",spontaneous motility; LD50 / ED of Test 3,275
same,minimal effective dose,"spontaneous motility; Mus musculus, ip, read-out: ED, lowest i.p. dose which still decreases the spontaneous motility (Test 3, -)",7.9 µmol/kg
same,Activity compared with Nomifensine (in words),[7]; all tests,activity is higher than that of Nomifensine
same,Therapeutical index relative to that of Nomifensine,[7]; various tests,"2-6,8 times higher"
same,minimal effective dose,stereotypy,21 µmol/kg
same,"TI (Test 6), LD/ED quotient",[8]; LD50 / ED of Test 6,84
same,minimal effective dose,"[8]; Mus musculus, sc, read-out: ED, lowest s.c. dose which still hinders the decrease of the rectal temperature caused by reserpine (Test 6)",26 µmol/kg

# From patent US4537895A, “Isoquinoline derivatives” (EGYT Gyogyszervegyeszeti Gyar, priority 1982, dated 1985)
